How the values were obtained:
[1] = tested on: human vascular smooth muscle cells (HAOSMC); assay: procoagulant activity of human vascular smooth muscle cells (thrombin formation in recalcified platelet-poor plasma); format: cell-based; conditions: additional administration of thrombin; cells expressing sgk-WT or sgk-MT; effect more pronounced and more rapid with intact kinase
Description: In FIG. 1, the procoagulant activity, in % of the maximum value, is plotted against the time after recalcification. In the experiment relating to FIG. 1, the procoagulant activity of human vascular smooth muscle cells (HAOSMC) was measured by measuring thrombin formation during the coagulation process in recalcified blood platelet-poor plasma (PPP) (Beguin S, Lidhout T, Hemker H C: Throm. Haemost. 61: 25-29, […]). For this, confluent vascular smooth muscle cells were kept for 24 hours in serum-free medium, then washed three times in HEPES-tyrode solution, and then incubated with human PPP. The formation of thrombin was induced by adding 16.7 mM CaCl2 to the incubation medium. In each case 20 μl of the supernatant were removed every one to two minutes and the formation of thrombin in the removed volume was determined using the dye S-2238 (Haemochrom Diagnostica). The optical density was determined at 405 nm in a spectrophotometer (Uvikon, Contron-instruments).

[2] = tested on: tissue factor mRNA (TF mRNA); assay: Northern blot of tissue factor mRNA in human vascular smooth muscle cells; format: cell-based; conditions: thrombin 3 U/ml for 4 hours
Description: The cells are human vascular smooth muscle cells equivalent to the cells used in the above experiment. 28S rRNA is loaded on as the internal standard. Human TF cDNA was used as the probe. The cells were in each case treated without and with thrombin (3 U/ml) for 4 hours.

Substance: thrombin
- increase in procoagulant activity, in % of the maximum value, against time after recalcification [1]: accelerated
- transcription of the tissue factor mRNA ([2]; cells containing active SGK (W) as compared with control cells): upregulated
- transcription of the tissue factor mRNA ([2]; cells containing inactive SGK mutant (M)): reduced

Reference: patent US20120149765A1, “SGK1 AS DIAGNOSTIC AND THERAPEUTIC TARGET” (priority 2003, published 2012)
